“And” between values parts separate entries of the source, which are not always exact repeats. Identical values can stand only once.
How the values were obtained:
[1] = Dialyser filling volume and clotting in the extracorporeal circuit at end of haemodialysis; type: in vivo, human
From the text: Following this, the patient was transferred to PEG-hirudin.

HIT II-positive patients = details: human, in vivo
Description: Patient was anticoagulated with 6900 IU heparin. […] The patient complained during dialysis and also in the dialysis-free intervals of problems relating to blood pressure and in some cases mild states of confusion. […] The average number of blood platelets before and after haemodialysis was between 350 and 400/nl.
The patient was transferred to PEG-hirudin according to the following dosage scheme: first haemodialysis: 0.1 mg/kg as a bolus, second to 10th haemodialysis: 0.05 mg/kg PEG hirudin, 11th haemodialysis and beyond: 0.025 mg/kg. […] The blood level of PEG hirudin fluctuated between 0.4 μg/ml before the start of haemodialysis and 1.0 μg/ml after dialysis. The filling volumes with the Type GFS plus 11 dialysers (GAMBRO) were as follows: under heparin application—the mean value for the last three heparin-anticoagulated dialyses was 87 ml; the filling volume during PEG-hirudin treatment for HD 5-HD 6 was 96 ml.
Creatinine clearance was less than 12 ml/min. The anticoagulant used during haemodialysis was un-fractionated heparin. Additionally, the dialysers (H120, Braun-Melsungen) were “primed” before the start of haemodialysis with 500 units of heparin. The patient received 3000 units of heparin as a bolus and 3000 units of heparin as an infusion during the 3.5 hour haemodialysis. […]

blood platelets = details: human, in vivo
From the text: Patient one. […] Patient was anticoagulated with 6900 IU heparin.
The objective and subjective findings which point towards an HIT II condition were no longer evident after the changeover to anticoagulation with PEG-hirudin. The blood platelet counts, which had constantly shown values above 400/nl during the last dialyses under heparin, fell during the PEG-hirudin haemodialysis to the range from 320 to 350/nl; a trend towards continued normalisation was clearly demonstrable.
The patient was then transferred to PEG-hirudin.

Description for HIT II antibodies: Patient. […] Patient was anticoagulated with 6900 IU heparin. […] The patient complained during dialysis and also in the dialysis-free intervals of problems relating to blood pressure and in some cases mild states of confusion. […] The average number of blood platelets before and after haemodialysis was between 350 and 400/nl.
Creatinine clearance was less than 12 ml/min. The anticoagulant used during haemodialysis was un-fractionated heparin. Additionally, the dialysers (H120, Braun-Melsungen) were “primed” before the start of haemodialysis with 500 units of heparin. The patient received 3000 units of heparin as a bolus and 3000 units of heparin as an infusion during the 3.5 hour haemodialysis. […] The patient complained of tingling in the extremities, a feeling of restlessness and intermittent state of confusion. Between the dialysis sessions, the patient complained of headaches, malaise and loss of appetite. They stated that the people around them complained that they were irritable and seemed under stress.
This patient had been dialysed for 5 months initially with un-fractionated heparin, then with fractionated heparin (Enoxaparin). Enoxaparin was applied in a dose of 20 mg directly before the start of the dialysis. After an incorrect dialysis (rise in pressure before the dialyser) over the dialysis period of 4.5 h, an additional 10 mg Enoxaparin were applied via an indwelling infusion pump placed before the dialyser (F 50 S, Fresenius). The patient indicated severe shortness of breath, a decline in circulation and blood pressure to base values of 80/30 mmHg shortly after the start of haemodialysis.

Substance	filling volume of dialyser ([1]; patient one, Type GFS plus 11 dialysers (GAMBRO), specified 100 ml, heparin: mean of last three dialyses, PEG-hirudin: HD 5-HD 6) [mL]	filling volume at the end of haemodialysis ([1]; patient two, H120 dialysers, heparin: last two haemodialyses, PEG-hirudin: after the 4th haemodialysis)	fall in blood pressure at the start of haemodialysis (HIT II-positive patients) [mmHg]	HIT II-specific diagnosis (HIPA-test) (HIT II antibodies)	tests for HIT-positive antibodies (HIPA and ELISA) (HIT II antibodies)	average number of blood platelets before and after haemodialysis (blood platelets) [nL⁻¹]	blood platelet counts (blood platelets)	blood pressure base values shortly after the start of haemodialysis (HIT II-positive patients)	tests for HIT II antibodies (HIPA test and platelet-factor-4 ELISA) (HIT II antibodies)	blood platelets during haemodialysis, reduced down to (blood platelets) [nL⁻¹]
heparin	87	71 mL and 73 mL	35	positive result	strongly positive	350 to 400	above 400 /nl	–	–	–
Enoxaparin	–	–	–	–	–	–	–	80/30	positive	100

From patent US20070275086A1, “Use of Increased Molecular-Weight Hirudin as an Anticoagulant in Extracorporeal Kidney Replace Therapy” (Max-Planck-Gesellschaft Zur Forderung Der Wissenschaften E.V, priority 1999, published 2007)
